The values that follow are results of earlier work, collected in paper PMC3807243 (Biochemical pharmacology, 2012).

For this data set, the system named is EphB4. The note with it: ref [38]–[40].

pIC50: −log10 of the molar value. Where two headings read alike, the source gives them in different places.

TNYLFSPNGPIA: for the setting “read-out: IC50 for inhibition of ephrin-B2 binding to EphB4”, the pIC50 is approximately 3.82. Take TNYLFSPNGPIARAW [TNYL-RAW]: the “Binding affinity for EphB4” value was “low nanomolar”. Besides, the pIC50 (read-out: IC50 for inhibition of EphB4 binding) is approximately 7.82.
